Where two headings read alike, the source gives them in different places.
Columns and labels:
[1] = tested on: human hepatocyte suspensions; assay: Hepatocyte incubations, human; assay type: in vitro ADME; conditions: human hepatocytes, NR = no reaction; for Hepatocyte Human 60/120′ (1 uM): 60′ / Hepatocyte Human 60/120′ (5 uM): 60′: 60 minutes; for Hepatocyte Human 60/120′ (1 uM): 120′ / Hepatocyte Human 60/120′ (5 uM): 120′: 120 minutes
Experimental: (§1) Hepatocyte Incubations: An in vitro measure of metabolism using cells from rat and human liver. Rat and human hepatocyte suspensions (10^6 cells per mL of serum-free (H)CL15 culture medium) were incubated with 2 concentrations (1 and 5 μM) of each of the compounds. Stock solutions were prepared in DMSO, and were further diluted in culture medium to the final test concentrations. 7-Ethoxycoumarin (7-EC) were included as a positive control substrate for P450. A 0.1 M 7-EC stock solution was prepared in DMSO, and the final assay concentration was 100 μM. The reactions were initiated by the addition of the substrates, incubated at 37° C., and terminated after 0, 60 and 120 minutes by addition of acetonitrile. The positive 7-EC control reactions were stopped with perchloric acid or ZnSO4 and BaOH after 60-minutes of incubation. The reaction mixture was centrifuged to remove the cell debris, and the supernatant was used for subsequent analysis by HPLC/LC-MS. If necessary, the supernatants were flash frozen in liquid N2 and stored at −70° C. until further analysis. HPLC was used to analyze product formation from 7-EC. Analyses to determine the concentration of the test compounds were carried out using reverse phase HPLC with tandem mass spectrometric detection (LC-MS/MS). Samples were analyzed to measure the disappearance of parent compound over time. The rate of metabolism was estimated by fitting a curve to the data for each concentration against time using GraphPad Prism Version 3.02 software.

[2] = tested on: Rat hepatocyte suspensions; assay: Hepatocyte incubations, rat; assay type: in vitro ADME; conditions: rat hepatocytes, NR = no reaction; for Hepatocyte Rat 60/120′ (1 uM): 60′ / Hepatocyte Rat 60/120′ (5 uM): 60′: 60 minutes; for Hepatocyte Rat 60/120′ (1 uM): 60′ / Hepatocyte Rat 60/120′ (1 uM): 120′: in % (unit assumed); for Hepatocyte Rat 60/120′ (5 uM): 60′ / Hepatocyte Rat 60/120′ (5 uM): 120′: unit assumed; for Hepatocyte Rat 60/120′ (5 uM): 120′ / Hepatocyte Rat 60/120′ (1 uM): 120′: 120 minutes
Experimental: as §1

[3] = tested on: CYP450 (CYP1A2, CYP2C9, CYP2C19, CYP2D6, CYP3A) in pooled human liver microsomes; assay: CYP450 inhibition using human microsomes; assay type: in vitro ADME; conditions: test compound 0.034-25 μM, CYP inhibited
Experimental: Determination of CYP450 inhibition and IC50 value using human microsomes: CYP450 inhibition provides a measure of potential issues with co-medication, since CYP450 enzymes metabolize many drugs. Microsomal incubation mixtures (500 μL) were prepared in HEPES buffer (50 mM HEPES, 15 mM MgCl2, 0.1 mM EDTA, pH 7.6) containing a NADPH regenerating system (1 mM NADPH, 10 mM glucose-6-phosphate 1 IU glucose-6-phosphate dehydrogenase), pooled human liver microsomes (0.5 mg protein), and 5 μL of 7 concentrations of compounds and positive control inhibitors (see Tables IV, V and VI).
After addition of the compounds or positive control inhibitors, the samples were pre-incubated at 37° C. for approximately 5 minutes. Subsequently, the P450 substrate cocktail were added to the reaction mixture and incubated for 20 minutes at 37° C. Reactions were terminated by the addition of 250 μL of methanol containing 5 μM dextrorphan as an internal standard (IS). The samples were vortexed briefly, placed on ice, and then centrifuged at approximately 12000×g for 5 minutes to remove debris. The supernatant from each sample was then transferred to a separate vial for LC-MS/MS analysis. Analysis to determine the amount of substrate specific metabolites (relative to the control samples) was carried out using reverse phase HPLC with tandem mass spectrometric detection (LC-MS/MS). Analysis of the data was carried out using Micromass MetaboLynx and QuanLynx software Versions 3.5 to determine the amount of the specific substrate metabolites produced in each sample (relative to the control samples).

[4] = tested on: Human umbilical vein endothelial cells (HUVEC); assay: BrdU proliferation assay, HUVEC (anti-angiogenic activity); assay type: cell-based; conditions: BrdU DNA synthesis, 48 h exposure, read-out: HUVEC (IC50 μM)
Text: Cell Culture: Human umbilical vein endothelial cells (HUVEC) were obtained from Clonetics (San Diego, Calif.), MCF7 cells were the kind gift of Dr. Dorraya El Ashry (University of Michigan), MDA-MB-231 a human breast carcinoma, PC3 a human prostate carcinoma, and U87-MG a human glioma, cell lines were obtained from ATCC. HUVEC cultures were maintained for up to 5 passages in EGM containing bovine brain extract (Clonetics) and 1× antibiotic-antimycotic (BioWhittaker, Walkersville, Md.). MDA-MB-231, PC3, U87-MG and MCF-7 cells were maintained in DMEM/F12 (1:1) containing 10% (v/v) fetal bovine serum (Hyclone Laboratories, Logan, Utah) and 1× antibiotic-antimycotic. MCF7 cells were used between passage 60 and passage 100.
Proliferation Assays: Proliferation was measured by cell counting using a Coulter Zl cell counter (Coulter Corporation, Hialeah, Fla.) or by evaluation of DNA synthesis. Each condition was done in triplicate and experiments were repeated at least twice. To determine estrogenicity of the analogs, MCF7 estrogen-dependent proliferation assays were performed. The cells were seeded in complete media at 10,000 cells/well in a 24 well plate after allowing the cells to adhere overnight and the seeding density was determined by cell counts. Cells were washed with PBS (37° C.) and starved by placing them in IMEM-phenol red free media containing 2% charcoal-dextran fetal bovine-stripped serum (Valley Biomedical, Winchester, Va.) and 1× antibiotic-antimycotic. After 3 days of starvation, cells were treated with or without increasing concentrations of compounds, replacing the media every 2-3 days and counted after 7 days of treatment. In order to ensure that only the added test compounds stimulated growth, experiments were performed only with cell cultures that duplicated less than once during the starvation period. Values are expressed as MCF7 stimulation index (SI) relative to 2ME2 (defined as 1.00). A value less than 1.00 indicates reduced estrogenicity. Estradiol is used as a positive control.
To determine anti-tumor and anti-angiogenic activities of the analogs, proliferation assays were performed by evaluating detection of DNA synthesis by use of the 5-bromo-2′-deoxyuridine (BrdU) cell proliferation colorimetric ELISA kit from Roche (Indianapolis, Ind.) according to the manufacturer's instructions. For BrdU assays, the cells were seeded at 1,000 cells/well (MDA-MB-231, anti-tumor activity) or 3,000 cells/well (HUVEC, anti-angiogenic activity) in a 96 well plate, allowed to attach overnight and then exposed to the compound for 48 h. IC50 value is the concentration at which cell proliferation is inhibited by 50%.
Antiproliferative activity of the NCEs were assessed in tumor cell lines (MDA-MB-231 a breast carcinoma, PC3 a prostate carcinoma and U87-MG a glioma) and endothelial cells (HUVEC).

Q: With `COc1cc2c(cc1C(N)=O)CC[C@@H]1[C@@H]2CC[C@]2(C)C(=O)CC[C@@H]12` [Compound 54, 2-methoxy-17-oxoestra-1,3,5(10)-triene-3-carboxamide] as the compound, how does the “Hepatocyte Human 60/120′ (1 uM): 60′” value [1] read?
A: 99

Q: What about the “Hepatocyte Human 60/120′ (1 uM): 120′” value [1] of the same compound?
A: 102

Q: What about the “Hepatocyte Human 60/120′ (5 uM): 120′” value [1] of the same compound?
A: 103

Q: And the “Hepatocyte Rat 60/120′ (1 uM): 60′” value [2]?
A: 78

Q: What about the Hepatocyte Rat 60/120′ (5 uM): 60′ [2] of the same compound?
A: 95%

Q: And the Hepatocyte Rat 60/120′ (5 uM): 120′ [2]?
A: 101%

Q: What about the CYP450 inhib. [3] of the same compound?
A: None

Q: What about the IC50 ([4]; Homo sapiens, HUVEC) of the same compound?
A: 5.46 ± 1.57 µM

Q: What does the source list for `COc1cc2c(cc1C(N)=O)CC[C@@H]1[C@@H]2CC[C@]2(C)CCC[C@@H]12` [Compound 57, (2-Methoxyestra-1,3,5(10)-trien-3-yl)-3-carboxamide]?
A: Hepatocyte Human 60/120′ (1 uM): 60′ [1]: 111; Hepatocyte Human 60/120′ (1 uM): 120′ [1]: 98; Hepatocyte Human 60/120′ (5 uM): 60′ [1]: 117; Hepatocyte Human 60/120′ (5 uM): 120′ [1]: 118; Hepatocyte Rat 60/120′ (1 uM): 60′ [2]: 91; Hepatocyte Rat 60/120′ (1 uM): 120′ [2]: 85; Hepatocyte Rat 60/120′ (5 uM): 60′ [2]: 95%; Hepatocyte Rat 60/120′ (5 uM): 120′ [2]: 83%; CYP450 inhib. [3]: None; IC50 [4]: 0.96 ± 0.26 µM

Q: With `C=C1CC[C@H]2[C@@H]3CCc4cc(C(N)=O)c(OC)cc4[C@H]3CC[C@]12C` [Compound 60, 2-Methoxy-17-methyleneestra-1,3,5(10)-triene-3-carboxamide] as the compound, how does the “Hepatocyte Human 60/120′ (1 uM): 120′” value [1] read?
A: 91

Q: What about the “Hepatocyte Human 60/120′ (5 uM): 60′” value [1] of the same compound?
A: 96

Q: And the “Hepatocyte Human 60/120′ (5 uM): 120′” value [1]?
A: 93

Q: What about the “Hepatocyte Rat 60/120′ (1 uM): 60′” value [2] of the same compound?
A: 99

Q: And the “Hepatocyte Rat 60/120′ (1 uM): 120′” value [2]?
A: 87

Q: And the Hepatocyte Rat 60/120′ (5 uM): 60′ [2]?
A: 87%

Q: And the CYP450 inhib. [3]?
A: None

Q: What about the IC50 ([4]; Homo sapiens, HUVEC) of the same compound?
A: 0.12 ± 0.06 µM

Q: Which “Hepatocyte Human 60/120′ (1 uM): 60′” value [1] does the source give for `COc1cc2c(cc1C(N)=O)CC[C@@H]1[C@@H]2CC[C@]2(C)C=CC[C@@H]12` [Compound 63, 3-carboxamide-2-methoxy-1,3,5(10)16-estratetraene] here?
A: 52

Q: What about the “Hepatocyte Human 60/120′ (1 uM): 120′” value [1] of the same compound?
A: 70

Q: What about the “Hepatocyte Human 60/120′ (5 uM): 60′” value [1] of the same compound?
A: 92

Q: What about the “Hepatocyte Human 60/120′ (5 uM): 120′” value [1] of the same compound?
A: 71

Q: And the “Hepatocyte Rat 60/120′ (1 uM): 60′” value [2]?
A: 77

Q: What about the “Hepatocyte Rat 60/120′ (1 uM): 120′” value [2] of the same compound?
A: 67

Q: And the Hepatocyte Rat 60/120′ (5 uM): 60′ [2]?
A: 78%

Q: What about the Hepatocyte Rat 60/120′ (5 uM): 120′ [2] of the same compound?
A: 87%

Q: And the CYP450 inhib. [3]?
A: None

Q: What about the IC50 [4] of the same compound?
A: 0.13 ± 0.05 µM
